How the values were obtained:
[1] = target: Triosephosphate isomerase, chloroplastic (Secale cereale) (UniProt P46225); test: Inhibition of desalted triosephosphate isomerase in Lolium multiflorum (Italian rye grass) shoot assessed as transformation of GAP to DHAP applied at concentration of 20.0 mg/flat measured per mg protein after 48 hr by coupled enzyme assay (reference value: 9.80 +/-0.43 nmol/sec)
[2] = target: Triosephosphate isomerase, chloroplastic (Secale cereale) (UniProt P46225); test: Inhibition of desalted triosephosphate isomerase in Lolium multiflorum (Italian rye grass) shoot assessed as transformation of GAP to DHAP applied at concentration of 4.43 mg/flat measured per mg protein after 48 hr by coupled enzyme assay (reference value: 9.80 +/-0.43 nmol/sec)
[3] = target: Triosephosphate isomerase, chloroplastic (Secale cereale) (UniProt P46225); test: Inhibition of desalted triosephosphate isomerase in Lolium multiflorum (Italian ryegrass) shoot assessed as transformation of GAP to DHAP applied at concentration of 1.80 mg/flat measured per mg protein after 48 hr by coupled enzyme assay (reference value: 9.80 +/-0.43 nmol/sec)
[4] = target: Triosephosphate isomerase, chloroplastic (Secale cereale) (UniProt P46225); test: Inhibition of desalted triosephosphate isomerase in Lolium multiflorum (Italian ryegrass) shoot assessed as transformation of GAP to DHAP applied at concentration of 14.4 mg/flat measured per mg protein after 48 hr by coupled enzyme assay (reference value: 9.80 +/-0.43 nmol/sec)
[5] = target: Triosephosphate isomerase, chloroplastic (Secale cereale) (UniProt P46225); test: Inhibition of desalted triosephosphate isomerase in Lolium multiflorum (Italian ryegrass) shoot assessed as decrease in transformation of GAP to DHAP applied at concentration of 14.4 mg/flat measured after 48 hr by coupled enzyme assay

Sequence of Triosephosphate isomerase, chloroplastic (Secale cereale) (P46225 whole entry): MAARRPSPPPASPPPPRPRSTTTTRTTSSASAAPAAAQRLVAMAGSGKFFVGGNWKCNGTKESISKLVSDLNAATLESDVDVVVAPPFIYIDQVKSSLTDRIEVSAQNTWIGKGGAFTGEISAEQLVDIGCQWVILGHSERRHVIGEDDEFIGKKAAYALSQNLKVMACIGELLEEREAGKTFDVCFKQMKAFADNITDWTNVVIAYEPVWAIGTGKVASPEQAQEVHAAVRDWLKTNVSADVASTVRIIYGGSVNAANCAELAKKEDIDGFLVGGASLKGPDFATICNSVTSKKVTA

| Structure (SMILES) | Activity [4] [nmol/s] | inhibition [5] [%] | other results |
| --- | --- | --- | --- |
| CCc1cccc(C)c1N(C(=O)CCl)C(C)COC (configuration not stated) |  |  | Activity [1]: 9.57 nmol/s |
| CCOC(=O)c1nc(C(Cl)(Cl)Cl)n(-c2ccc(Cl)cc2Cl)n1 |  |  | Activity [2]: 10.2 nmol/s |
| CCOC(=O)C(C)Oc1ccc(Oc2nc3ccc(Cl)cc3o2)cc1 (configuration not stated) |  |  | Activity [3]: 9.3 nmol/s |
| O=[N+]([O-])c1ccc(Oc2ccc(C(F)(F)F)cc2[N+](=O)[O-])cc1 | 6.28 | 35.9 |  |
| CCNc1nc(Cl)nc(NC(C)C)n1 | 7.2 | 26.5 |  |

— ChEMBL document CHEMBL3046826, “Triosephosphate isomerases in Italian ryegrass ( Lolium multiflorum ): characterization and susceptibility to herbicides” (J Agric Food Chem, 2009)
